± gives the expanded uncertainty stated by the source.
Assay: xn = mol fraction of the nth substance listed
Conditions: 100 kPa, Liquid; for viscosity: Capillary tube (Ostwald / Ubbelohde) method; for mass density: Vibrating tube method

O=C1CCCO1 [γ-butyrolactone] + CCn1cc[n+](C)c1.O=S(=O)([N-]S(=O)(=O)C(F)(F)F)C(F)(F)F
Conditions	mass density [kg/m3]	viscosity [mPa·s]
293.15 K, x2 = 0	1129.49 ± 9	1.86 ± 0.08
293.15 K, x2 = 0.05	1189.18 ± 9.7	2.57 ± 0.11
293.15 K, x2 = 0.0995	–	3.12 ± 0.13
293.15 K, x2 = 0.0996	1236.95 ± 10	–
293.15 K, x2 = 0.1502	1277.22 ± 10	3.83 ± 0.16
293.15 K, x2 = 0.2006	1310.83 ± 11	4.63 ± 0.19
293.15 K, x2 = 0.3	–	6.64 ± 0.27
293.15 K, x2 = 0.3001	1363.28 ± 11	–
293.15 K, x2 = 0.4	–	9.2 ± 0.38
293.15 K, x2 = 0.4021	1403.82 ± 11	–
293.15 K, x2 = 0.4899	–	11.95 ± 0.49
293.15 K, x2 = 0.4992	1434.01 ± 11	–
293.15 K, x2 = 0.6103	1461.49 ± 12	16.41 ± 0.67
293.15 K, x2 = 0.6912	1478 ± 12	–
293.15 K, x2 = 0.6995	–	20.33 ± 0.83
293.15 K, x2 = 0.7817	1493.78 ± 12	–
293.15 K, x2 = 0.7927	–	24.88 ± 1
293.15 K, x2 = 0.8991	1510.97 ± 12	30.67 ± 1.2
293.15 K, x2 = 0.9532	–	34.26 ± 1.4
298.15 K, x2 = 0	1124.59 ± 9	1.71 ± 0.07
298.15 K, x2 = 0.05	1184.22 ± 9.6	2.41 ± 0.1
298.15 K, x2 = 0.0995	–	2.94 ± 0.12
298.15 K, x2 = 0.0996	1231.94 ± 9.9	–
298.15 K, x2 = 0.1502	1272.16 ± 10	3.61 ± 0.15
298.15 K, x2 = 0.2006	1305.75 ± 10	4.35 ± 0.18
298.15 K, x2 = 0.3	–	6.16 ± 0.25
298.15 K, x2 = 0.3001	1358.16 ± 11	–
298.15 K, x2 = 0.4	–	8.37 ± 0.34
298.15 K, x2 = 0.4021	1398.7 ± 11	–
298.15 K, x2 = 0.4899	–	10.72 ± 0.44
298.15 K, x2 = 0.4992	1428.88 ± 11	–
298.15 K, x2 = 0.6103	1456.36 ± 12	14.47 ± 0.59
298.15 K, x2 = 0.6912	1472.86 ± 12	–
298.15 K, x2 = 0.6995	–	17.71 ± 0.72
298.15 K, x2 = 0.7817	1488.64 ± 12	–
298.15 K, x2 = 0.7927	–	21.48 ± 0.87
298.15 K, x2 = 0.8991	1505.84 ± 12	26.32 ± 1.1
298.15 K, x2 = 0.9532	–	29.01 ± 1.2
303.15 K, x2 = 0	1119.68 ± 9	1.58 ± 0.06
303.15 K, x2 = 0.05	1179.23 ± 9.6	2.24 ± 0.09
303.15 K, x2 = 0.0995	–	2.71 ± 0.11
303.15 K, x2 = 0.0996	1226.88 ± 9.9	–
303.15 K, x2 = 0.1502	1267.09 ± 10	3.3 ± 0.14
303.15 K, x2 = 0.2006	1300.66 ± 10	3.97 ± 0.16
303.15 K, x2 = 0.3	–	5.57 ± 0.23
303.15 K, x2 = 0.3001	1353.03 ± 11	–
303.15 K, x2 = 0.4	–	7.49 ± 0.31
303.15 K, x2 = 0.4021	1393.55 ± 11	–
303.15 K, x2 = 0.4899	–	9.49 ± 0.39
303.15 K, x2 = 0.4992	1423.73 ± 11	–
303.15 K, x2 = 0.6103	1451.19 ± 12	12.66 ± 0.51
303.15 K, x2 = 0.6912	1467.67 ± 12	–
303.15 K, x2 = 0.6995	–	15.38 ± 0.63
303.15 K, x2 = 0.7817	1483.46 ± 12	–
303.15 K, x2 = 0.7927	–	18.53 ± 0.75
303.15 K, x2 = 0.8991	1500.66 ± 12	22.48 ± 0.91
303.15 K, x2 = 0.9532	–	24.66 ± 1
308.15 K, x2 = 0	1114.78 ± 8.9	1.47 ± 0.06
308.15 K, x2 = 0.05	1174.26 ± 9.5	2.07 ± 0.09
308.15 K, x2 = 0.0995	–	2.48 ± 0.1
308.15 K, x2 = 0.0996	1221.85 ± 9.9	–
308.15 K, x2 = 0.1502	1262.03 ± 10	3.03 ± 0.12
308.15 K, x2 = 0.2006	1295.56 ± 10	3.66 ± 0.15
308.15 K, x2 = 0.3	–	5.09 ± 0.21
308.15 K, x2 = 0.3001	1347.9 ± 11	–
308.15 K, x2 = 0.4	–	6.72 ± 0.27
308.15 K, x2 = 0.4021	1388.4 ± 11	–
308.15 K, x2 = 0.4899	–	8.39 ± 0.34
308.15 K, x2 = 0.4992	1418.56 ± 11	–
308.15 K, x2 = 0.6103	1446.01 ± 12	11.08 ± 0.45
308.15 K, x2 = 0.6912	1462.49 ± 12	–
308.15 K, x2 = 0.6995	–	13.34 ± 0.54
308.15 K, x2 = 0.7817	1478.28 ± 12	–
308.15 K, x2 = 0.7927	–	15.98 ± 0.65
308.15 K, x2 = 0.8991	1495.47 ± 12	19.26 ± 0.78
308.15 K, x2 = 0.9532	–	21.15 ± 0.86
313.15 K, x2 = 0	1109.87 ± 8.9	1.37 ± 0.06
313.15 K, x2 = 0.05	1169.29 ± 9.5	1.92 ± 0.08
313.15 K, x2 = 0.0995	–	2.32 ± 0.1
313.15 K, x2 = 0.0996	1216.89 ± 9.8	–
313.15 K, x2 = 0.1502	1257.03 ± 10	2.81 ± 0.12
313.15 K, x2 = 0.2006	1290.56 ± 10	3.37 ± 0.14
313.15 K, x2 = 0.3	–	4.63 ± 0.19
313.15 K, x2 = 0.3001	1342.87 ± 11	–
313.15 K, x2 = 0.4	–	6.09 ± 0.25
313.15 K, x2 = 0.4021	1383.33 ± 11	–
313.15 K, x2 = 0.4899	–	7.55 ± 0.31
313.15 K, x2 = 0.4992	1413.46 ± 11	–
313.15 K, x2 = 0.6103	1440.89 ± 12	9.84 ± 0.4
313.15 K, x2 = 0.6912	1457.37 ± 12	–
313.15 K, x2 = 0.6995	–	11.77 ± 0.48
313.15 K, x2 = 0.7817	1473.14 ± 12	–
313.15 K, x2 = 0.7927	–	13.93 ± 0.57
313.15 K, x2 = 0.8991	1490.3 ± 12	16.67 ± 0.68
313.15 K, x2 = 0.9532	–	18.26 ± 0.74
318.15 K, x2 = 0	1104.96 ± 8.8	1.28 ± 0.05
318.15 K, x2 = 0.05	1164.33 ± 9.5	1.76 ± 0.07
318.15 K, x2 = 0.0995	–	2.12 ± 0.09
318.15 K, x2 = 0.0996	1211.89 ± 9.8	–
318.15 K, x2 = 0.1502	1252 ± 10	2.57 ± 0.11
318.15 K, x2 = 0.2006	1285.51 ± 10	3.07 ± 0.13
318.15 K, x2 = 0.3	–	4.15 ± 0.17
318.15 K, x2 = 0.3001	1337.8 ± 11	–
318.15 K, x2 = 0.4	–	5.46 ± 0.22
318.15 K, x2 = 0.4021	1378.25 ± 11	–
318.15 K, x2 = 0.4899	–	6.65 ± 0.27
318.15 K, x2 = 0.4992	1408.36 ± 11	–
318.15 K, x2 = 0.6103	1435.77 ± 12	8.6 ± 0.35
318.15 K, x2 = 0.6912	1452.23 ± 12	–
318.15 K, x2 = 0.6995	–	10.2 ± 0.41
318.15 K, x2 = 0.7817	1467.99 ± 12	–
318.15 K, x2 = 0.7927	–	12.07 ± 0.49
318.15 K, x2 = 0.8991	1485.13 ± 12	14.42 ± 0.59
318.15 K, x2 = 0.9532	–	15.79 ± 0.64
323.15 K, x2 = 0	1100.05 ± 8.8	1.2 ± 0.05
323.15 K, x2 = 0.05	1159.37 ± 9.4	1.66 ± 0.07
323.15 K, x2 = 0.0995	–	2.02 ± 0.08
323.15 K, x2 = 0.0996	1206.9 ± 9.8	–
323.15 K, x2 = 0.1502	1247.02 ± 10	2.42 ± 0.1
323.15 K, x2 = 0.2006	1280.5 ± 10	2.89 ± 0.12
323.15 K, x2 = 0.3	–	3.89 ± 0.16
323.15 K, x2 = 0.3001	1332.77 ± 11	–
323.15 K, x2 = 0.4	–	4.97 ± 0.2
323.15 K, x2 = 0.4021	1373.17 ± 11	–
323.15 K, x2 = 0.4899	–	6.15 ± 0.25
323.15 K, x2 = 0.4992	1403.26 ± 11	–
323.15 K, x2 = 0.6103	1430.64 ± 11	7.81 ± 0.32
323.15 K, x2 = 0.6912	1447.09 ± 12	–
323.15 K, x2 = 0.6995	–	9.19 ± 0.37
323.15 K, x2 = 0.7817	1462.82 ± 12	–
323.15 K, x2 = 0.7927	–	10.76 ± 0.44
323.15 K, x2 = 0.8991	1479.92 ± 12	12.78 ± 0.52
323.15 K, x2 = 0.9532	–	13.93 ± 0.57

From the NIST ThermoML archive (doi:10.1016/j.jct.2016.03.034)
